In patent US5266561A, “Treatment of type 2 diabetes mellitus” (Amylin Pharmaceuticals, Inc., priority 1991, dated 1993):
Where no end group is shown, it is not given here.

Tests used:
[1] = target: T1, insulin receptor on red blood cells; assay: Displacement of insulin from its receptor on red blood cells; assay type: binding
T1 construct: endogenous in cells; host or cells: red blood cells

rat islet cells [2] = assay: Glucose-stimulated insulin secretion from isolated rat islets of Langerhans; assay type: cell-based; settings: glucose 10 mmol/L; for RELATIVE INSULIN SECRETION INHIBITION: reduction from control
Procedure: All experiments were performed by known methods used in experimental practice. See, e.g., Lacey P E, and Kostianovsky M, Method for the isolation of intact islets of Langerhans from the rat Dancreas. Diabetes 1967; 16:35-39.
Briefly, rats were killed, and islets of Langerhans were isolated from their pancreases. Experiments were performed either with freshly isolated islets or after overnight incubation of islets (23 h) in standard culture medium and conditions at 37° C. […] Incubation of islets for these experiments was carried out in standard Krebs-Heinsleit buffer, and it was verified that the addition of the 1.0 mmol/L citrate buffer had no effect on the pH of the incubation medium. Stimulation of islets was carried out at the standard stimulatory glucose concentration of 10 mmol/L.
Production of insulin is expressed as μU/islet/h. All experiments were performed with five replicates per point. The integrity of the islet response was assessed by comparing the responses after stimulation of different aliquots of islets by two and ten mmol/L glucose, respectively, and the strength of the inhibitory response was judged against that induced by 1 μg/ml (650 nmol/L) somatostatin. […] See Arimura A. Biomed res 1981; 2:233-257. […] See Petterson M, Ahren B, Bottcher G, Sundler F, Endocrinology 1986; 119:865-869.
The results are shown in TABLE 5 below and all results are expressed as ± standard error of the mean (s.e.m.). The significance of differences between the means of groups is assessed by the t-test. The result of stimulation by 10 mmol/L glucose is compared with the results of stimulation at 2 mmol/L glucose. In all other experimental conditions, the significance of the inhibitory effect is measured against the effect of 10 mmol/L glucose alone.

rat islet cells [3] = settings: literature statement; cited from earlier work

## amylin: 37-residue peptide from pancreatic amyloid of Type 2 diabetics; source (synthetic or native) not stated at these places (KCNTATCATQRLANFLVHSSNNFGAILSSTNVGSNTY; Islet amyloid polypeptide; UniProt P10997 34-70, looked up)
[1]
  displacing insulin from its receptor on red blood cells: not capable of significantly displacing insulin

## C[C@H](N)C(=O)NCC(=O)N[C@H]1CSSC[C@@H](C(=O)O)NC(=O)[C@H](CO)NC(=O)[C@H]([C@@H](C)O)NC(=O)[C@H](Cc2ccccc2)NC(=O)[C@H]([C@@H](C)O)NC(=O)[C@H](CCCCN)NC(=O)[C@H](Cc2c[nH]c3ccccc23)NC(=O)[C@H](Cc2ccccc2)NC(=O)[C@H](Cc2ccccc2)NC(=O)[C@H](CC(N)=O)NC(=O)[C@H](CCCCN)NC1=O [Somatostatin, reference compound]
Rat islet cells [2]; 650 nmol/L
  INSULIN PRODUCTION Mean value: 44 μU/islet/hr
  RELATIVE INSULIN SECRETION INHIBITION: 45%
Rat islet cells [3]
  inhibition of the insulin secretory response of islet B-cells to glucose: known, potent inhibitor

## CGRP 27-37 (FVPTNVGSKAF; ends and bridges not checked; UniProt P06881 109-119, looked up, fragment)
Rat islet cells [2]; 10 nmol/L
  INSULIN PRODUCTION Mean value: 36 μU/islet/hr
  RELATIVE INSULIN SECRETION INHIBITION: 55%
Rat islet cells [2]; 100 nmol/L
  INSULIN PRODUCTION Mean value: 36 μU/islet/hr
  RELATIVE INSULIN SECRETION INHIBITION: 55%
Rat islet cells [2]; 1000 nmol/L
  INSULIN PRODUCTION Mean value: 46 μU/islet/hr
  RELATIVE INSULIN SECRETION INHIBITION: 42%
